# Patent US20240350432A1, “CENTRAL NERVOUS SYSTEM MODULATORS AS COVID-19 THERAPEUTICS” (priority 2023, published 2024)
# “Also recorded” adds a separate entry of the source.
# Tests used:
# SARS-CoV-2, Beta variant [1] = format: in vivo; conditions: COVID-19 positive mice; for body weight nonlinear regression, Best fit / body weight as percent of baseline weight over time: 10 mg/kg I.P. BID, 10 day group; for body weight as percent of baseline weight over time: 10 mg/kg
# SARS-CoV-2, Beta variant [2] = system: SARS-CoV-2, Beta variant; parameters: species or system mice; conditions: mouse, in vivo, ip, 10 mg/kg
SMILES,"body weight nonlinear regression, Best fit (SARS-CoV-2, Beta variant [1])","body weight as percent of baseline weight over time (SARS-CoV-2, Beta variant [1])","body weight nonlinear regression, Slope 1 (SARS-CoV-2, Beta variant [1]; Segmental Line fit)","body weight nonlinear regression, Slope2 (SARS-CoV-2, Beta variant [1]; Segmental Line fit)","body weight nonlinear regression, X0 (SARS-CoV-2, Beta variant [1]; Segmental Line fit)","survival outcome (SARS-CoV-2, Beta variant [2])"
CC(C(O)c1ccc(O)cc1)N1CCC(Cc2ccccc2)CC1 (stereo not drawn) [ifenprodil],Segmental Line,appear to reduce observable signs of disease; also recorded: reduction in body weight starting around day 5; also recorded: body weight returned to normal levels by day 10 post-inoculation,-0.8076,0.8604,6,some protective effect
CC12CC3CC(C)(C1)CC(N)(C3)C2 [memantine],Horizontal Line,appear to reduce observable signs of disease; also recorded: little to no fluctuation in body weight,,,,good survival; also recorded: significantly improved survival outcome
